In patent US20080255206A1, “Rxr Agonists and Antagonists, Alone or in Combination with Ppar Ligands, in the Treatment of Metabolic and Cardiovascular Diseases” (priority 2005, published 2008):
pEC50, pIC50: −log10 of the molar value.

Tests used:
RARα = biological target: T1, RARα (Homo sapiens, UniProt P10276); assay: Retinoid binding assay, RARα; design: The DEF domains of RAR's and the full length RXR's, expressed in E.coli; made in house; host or cells: E. coli; settings: read-out: Binding Affinity IC50 RAR α
T1 sequence (P10276 183-417 limits assumed): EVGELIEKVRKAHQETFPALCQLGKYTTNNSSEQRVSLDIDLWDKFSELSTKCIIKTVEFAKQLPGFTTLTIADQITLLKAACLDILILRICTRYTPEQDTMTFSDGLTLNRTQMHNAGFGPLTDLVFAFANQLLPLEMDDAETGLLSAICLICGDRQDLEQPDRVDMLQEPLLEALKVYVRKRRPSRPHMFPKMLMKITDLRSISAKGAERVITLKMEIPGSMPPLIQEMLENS
Source text: (§1) The DEF domains of RAR's and the full length RXR's, expressed in E.coli, are used to measure competitive retinoid binding. […] 9-cis retinoic acid (for RXR's), respectively. […] Separation of bound from free radioactivity is achieved by charcoal/dextran (RAR's) or by desalting columns (RXR's). […] Retinoid Activation Assays

RARγ = biological target: T2, RARγ (Homo sapiens, UniProt P13631); assay: Retinoid binding assay, RARγ; settings: read-out: Binding Affinity IC50 RAR γ
T2 construct: The DEF domains of RAR's and the full length RXR's, expressed in E.coli; made in house; host or cells: E. coli
T2 sequence (P13631 185-419 limits assumed): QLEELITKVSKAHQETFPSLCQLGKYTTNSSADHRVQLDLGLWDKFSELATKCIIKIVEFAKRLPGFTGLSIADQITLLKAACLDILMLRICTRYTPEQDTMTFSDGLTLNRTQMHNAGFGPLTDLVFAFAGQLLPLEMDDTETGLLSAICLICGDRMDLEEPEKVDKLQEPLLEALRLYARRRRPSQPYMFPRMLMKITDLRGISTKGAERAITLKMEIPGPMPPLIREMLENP
Source text: as §1

RARβ = biological target: T3, RARβ (Homo sapiens, UniProt P10826); assay: Retinoid binding assay, RARβ; design: The DEF domains of RAR's and the full length RXR's, expressed in E.coli; made in house; host or cells: E. coli; settings: read-out: Binding Affinity IC50 RAR β
T3 sequence (P10826 183-417 limits assumed): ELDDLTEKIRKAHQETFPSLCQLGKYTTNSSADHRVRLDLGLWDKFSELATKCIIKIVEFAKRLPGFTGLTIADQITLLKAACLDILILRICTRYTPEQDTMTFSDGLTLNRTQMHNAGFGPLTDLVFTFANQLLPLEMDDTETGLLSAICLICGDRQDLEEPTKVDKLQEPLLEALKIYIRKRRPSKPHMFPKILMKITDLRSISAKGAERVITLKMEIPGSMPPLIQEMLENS
Source text: as §1

RXRγ [1] = biological target: T4, RXRγ (Homo sapiens, UniProt P48443); assay: Retinoid binding assay, RXRγ; design: made in house; host or cells: E. coli; settings: [3H] 9-cis retinoic acid 20 nM; read-out: Binding Affinity IC50 RXR γ
T4 sequence (P48443 1-463): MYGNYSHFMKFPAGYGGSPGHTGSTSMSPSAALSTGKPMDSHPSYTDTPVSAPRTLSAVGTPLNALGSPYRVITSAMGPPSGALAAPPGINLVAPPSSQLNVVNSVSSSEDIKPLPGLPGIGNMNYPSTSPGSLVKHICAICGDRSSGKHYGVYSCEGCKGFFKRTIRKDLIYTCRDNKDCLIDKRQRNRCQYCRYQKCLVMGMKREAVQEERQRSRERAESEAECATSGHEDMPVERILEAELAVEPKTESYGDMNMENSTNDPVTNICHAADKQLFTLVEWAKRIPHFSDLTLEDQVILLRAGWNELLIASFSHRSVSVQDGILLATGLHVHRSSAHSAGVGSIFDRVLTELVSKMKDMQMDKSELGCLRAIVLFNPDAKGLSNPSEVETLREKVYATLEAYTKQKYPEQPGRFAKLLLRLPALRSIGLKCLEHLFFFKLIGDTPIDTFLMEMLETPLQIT
Source text: as §1

RXRγ [2] = biological target: T4, RXRγ; assay: Retinoid activation assay, RXRγ (Schneider SL-3 cells, luciferase reporter); type: cell-based; settings: read-out: Activation EC50 RXR γ
Description: (§2) Full length RXR cDNA is used for transfection. As reporter system, the luciferase gene is used in a construct with three copies of a RXR response element from rat CRBP gene, (formerly RARE from betaRAR gene), fused to alcoholdehydrogenase gene promoter in the plasmid pGL2-basic. Schneider SL-3 cells from Drosophila are transiently transfected 3-4 h before the experiment by the Ca-phosphate-DNA coprecipitation method. […] At the end of the incubation, the cell supernatants are assayed for luciferase activity. Results are given as EC50 (nM), the concentration leading to half-maximal activation.

RXRβ = biological target: T5, RXRβ (Homo sapiens, UniProt P28702); assay: Retinoid activation assay, RXRβ (Schneider SL-3 cells, luciferase reporter); type: cell-based; settings: read-out: Activation EC50 RXR β
T5 construct: Full length RXR cDNA is used for transfection; expressed in transfected cells; host or cells: Schneider SL-3 cells (Drosophila)
T5 sequence (P28702 1-533): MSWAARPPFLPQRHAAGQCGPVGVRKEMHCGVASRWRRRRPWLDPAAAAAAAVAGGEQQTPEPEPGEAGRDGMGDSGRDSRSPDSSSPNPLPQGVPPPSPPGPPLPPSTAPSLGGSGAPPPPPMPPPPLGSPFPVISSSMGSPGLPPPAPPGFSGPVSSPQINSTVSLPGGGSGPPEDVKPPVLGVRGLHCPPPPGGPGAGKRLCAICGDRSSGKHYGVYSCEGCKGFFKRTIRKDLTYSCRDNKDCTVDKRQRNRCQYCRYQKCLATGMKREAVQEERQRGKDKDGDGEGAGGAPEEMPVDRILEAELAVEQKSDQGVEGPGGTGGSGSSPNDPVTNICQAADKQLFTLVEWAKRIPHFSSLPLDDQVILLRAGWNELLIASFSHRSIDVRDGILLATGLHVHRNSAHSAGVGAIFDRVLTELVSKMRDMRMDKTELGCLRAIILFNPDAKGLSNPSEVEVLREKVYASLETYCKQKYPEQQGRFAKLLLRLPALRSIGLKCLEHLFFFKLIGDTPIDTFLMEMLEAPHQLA
Description: as §2

PPARγ/RXRα Heterodimer = biological target: T6, PPARγ/RXRα Heterodimer (Homo sapiens, UniProt P19793); assay: PPARγ/RXRα heterodimer activation (transactivation) assay; type: cell-based
T6 construct: co-transfected with plasmids expressing the full length RXR heteropartner receptor; expressed in transfected cells
T6 sequence (P19793 1-462): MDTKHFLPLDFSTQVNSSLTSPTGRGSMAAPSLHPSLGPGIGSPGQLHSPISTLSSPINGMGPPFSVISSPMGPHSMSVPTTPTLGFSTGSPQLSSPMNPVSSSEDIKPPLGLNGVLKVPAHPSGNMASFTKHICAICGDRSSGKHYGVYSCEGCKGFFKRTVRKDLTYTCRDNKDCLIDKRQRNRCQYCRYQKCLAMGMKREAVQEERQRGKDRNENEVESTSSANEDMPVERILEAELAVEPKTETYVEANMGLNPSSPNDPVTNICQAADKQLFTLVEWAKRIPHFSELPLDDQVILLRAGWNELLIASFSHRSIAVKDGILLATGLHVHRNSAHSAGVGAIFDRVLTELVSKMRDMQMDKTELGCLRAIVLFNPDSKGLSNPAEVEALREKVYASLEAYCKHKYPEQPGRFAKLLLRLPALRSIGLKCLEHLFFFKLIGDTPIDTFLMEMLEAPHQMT
T6 sequence (P37231 1-505 partner): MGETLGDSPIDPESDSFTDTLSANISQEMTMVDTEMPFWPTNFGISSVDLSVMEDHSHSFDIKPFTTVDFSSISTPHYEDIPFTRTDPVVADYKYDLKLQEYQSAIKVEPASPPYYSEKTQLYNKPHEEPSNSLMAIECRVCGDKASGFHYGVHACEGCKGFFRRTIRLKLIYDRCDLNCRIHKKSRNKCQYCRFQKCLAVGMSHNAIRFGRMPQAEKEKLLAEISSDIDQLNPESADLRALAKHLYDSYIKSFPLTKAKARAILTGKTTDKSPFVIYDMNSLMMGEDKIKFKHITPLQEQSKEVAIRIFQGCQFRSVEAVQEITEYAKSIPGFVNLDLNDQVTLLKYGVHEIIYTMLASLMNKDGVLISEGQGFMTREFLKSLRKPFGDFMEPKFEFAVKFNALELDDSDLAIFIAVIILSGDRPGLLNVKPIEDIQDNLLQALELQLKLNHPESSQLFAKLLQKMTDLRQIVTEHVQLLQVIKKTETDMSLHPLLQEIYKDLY
Source text: (§3) Nuclear hormone receptor (NHR) ligand dependent transcriptional transactivation assay.
Heterodimer reporter assays are potentially more important selection criteria for synthetic agonistic NHR ligands as they embody a more natural situation. Basically plasmids expressing the recombinant full length NHR are co-transfected with plasmids expressing the full length RXR heteropartner receptor and a reporter plasmid containing several copies of the natural responsive elements for the respective NHR driving the luciferase reporter gene.

RXRα [3] = biological target: T7, RXRα (Homo sapiens, UniProt P19793); assay: Retinoid binding assay, RXRα; design: made in house; host or cells: E. coli; settings: [3H] 9-cis retinoic acid 20 nM; read-out: Binding Affinity IC50 RXR α
T7 sequence (P19793 1-462): T6 sequence (P19793 1-462)
Source text: as §1

RXRα Homodimer = biological target: T8, RXRα Homodimer (Homo sapiens, UniProt P19793); assay: RXRα homodimer activation (transactivation) assay; type: cell-based
T8 construct: expressed in transfected cells; host or cells: mammalian cells (BHK21, CV1, etc)
T8 sequence (P19793 1-462): T6 sequence (P19793 1-462)
Source text: as §3
This secondary in vitro functional assay to characterize hits from the primary ligand binding screens is a GAL4-LBD transactivation assay. The Gal4-LBD protein consists of an in frame fusion of the transcription factor galactose 4 DNA binding domain from S.cerevisiae with the ligand binding domain (LBD) of a particular NHR. Briefly, a plasmid construct expressing the recombinant chimeric receptor is co-transfected into mammalian cells (BHK21, CV1, etc) with a luciferase reporter plasmid containing several copies in tandem of the GAL4 binding sites (promoter recognition elements) upstream from the minimal promoter driving the luciferase gene. The transfected cells are treated with compounds for 12-24 hours, lysates are produced and assayed for luciferase activity and normalized to internal standards such as GH, growth hormone or SEAP, secreted alkaline phosphatase. Ligand binding stabilizes the LBD conformation that recruits endogenous co-factors that mediate eventually the increased transcriptional activity of the luciferase reporter gene. By comparing the activation profile of a reference ligand or a natural ligand, the EC50 values for agonistic activity of a particular ligand can be measured. The extent of activation that can be measured is indicative of a partial, respectively full agonistic activity of a ligand. […]

RXRα [4] = biological target: T7, RXRα; assay: Retinoid activation assay, RXRα (Schneider SL-3 cells, luciferase reporter); type: cell-based; settings: read-out: Activation EC50 RXR α
Description: as §2

Compound | pIC50 (RARα) | pIC50 (RARγ) | pIC50 (RARβ) | pIC50 (RXRγ [1]) | pEC50 (RXRγ [2]) | pEC50 (RXRβ) | pEC50 (PPARγ/RXRα Heterodimer) | pIC50 (RXRα [3]) | pEC50 (RXRα Homodimer) | pEC50 (RXRα [4])
CCCOc1cc2c(cc1\C(C)=C/C=C/C(C)=C/C(=O)O)C(C)(C)CCC2(C)C [Compound 23, (2E,4E,6Z)-3-Methyl-7-(5,5,8,8-tetramethyl-3-propoxy-5,6,7,8-tetrahydro-naphthalen-2-yl)-octa-2,4,6-trienoic acid] | 5.51 | 5.55 | 5.46 | 7.17 | < 5.00 | < 5.00 | – | – | – | –
CCc1cc2c(cc1\C(C)=C/C=C/C(C)=C/C(=O)O)CCCC2C (racemic) [Compound 11, (2E,4E,6Z)-(RS)-7-(3-Ethyl-5-methyl-5,6,7,8-tetrahydro-naphthalen-2-yl)-3-methyl-octa-2,4,6-trienoic acid] | – | – | – | 7.25 | 7.43 | 7.77 | 8.00 | 7.19 | 8.70 | 8.68
CC(/C=C/[C@@H]1C[C@@H]1c1ccc2c(c1)C(C)(C)CCC2(C)C)=C\C(=O)O (stereo in doubt) [Compound 10, (2E,4E)-3-Methyl-5-[(1S,2S)-2-(5,5,8,8-tetramethyl-5,6,7,8-tetrahydro-naphthalen-2-yl)-cyclopropyl]-penta-2,4-dienoic acid] | – | – | – | 6.91 | 7.19 | 7.55 | 8.22 | 6.96 | 8.59 | 8.59
CCCOc1cc2c(cc1[C@@H]1C[C@@H]1/C=C/C(C)=C/C(=O)O)C(C)(C)CCC2(C)C (racemic) [Compound 22, (2E,4E)-3-Methyl-5-[(1RS,2RS)-2-(5,5,8,8-tetramethyl-3-propoxy-5,6,7,8-tetrahydro-naphthalen-2-yl)-cyclopropyl]-penta-2,4-dienoic acid] | – | – | – | 6.15 | < 5.00 | < 5.00 | < 7.52 | 6.52 | < 5.00 | < 5.00
